# Reference: US12583854B2, “KRAS G12C inhibitors and methods of using the same” (Amgen Inc., priority 2018, dated 2026)
# Like-named read-outs stand apart in the source and are kept apart here.
# Columns and labels:
# [1] = molecular target: GDP-bound KRAS protein (aa 1-169), containing both G12C and C118A amino acid substitutions (Homo sapiens, UniProt P01116, C118A/G12C); experiment: Coupled Nucleotide Exchange Assay; format: biochemical; details: 5 min compound pre-incubation; SOS-mediated nucleotide exchange, AlphaScreen
# Experimental: Following compound pre-incubation, purified SOS protein (aa 564-1049) and GTP (Roche 10106399001) were added to the assay wells and incubated for an additional 30 min. To determine the extent of inhibition of SOS-mediated nucleotide exchange, purified GST-tagged cRAF (aa 1-149), nickel chelate AlphaLISA acceptor beads (PerkinElmer AL108R), and AlphaScreen glutathione donor beads (PerkinElmer 6765302) were added to the assay wells and incubated for 10 minutes. The assay plates were then read on a PerkinElmer EnVision Multilabel Reader, using AlphaScreen® technology, and data were analyzed using a 4-parameter logistic model to calculate IC50 values.
# [2] = test system: Phosphorylation of ERK1/2 in MIA PaCa-2 cells; experiment: Phospho-ERK1/2 MSD Assay; format: cell-based; details: EGF stimulation 10 ng/mL, 10 min, read-out: p-ERK IC50 (2 h)
# Experimental: Phospho-ERK1/2 MSD Assay: MIA PaCa-2 (ATCC® CRL-1420™) and A549 (ATCC® CCL-185™) cells were cultured in RPMI 1640 Medium (ThermoFisher Scientific 11875093) containing 10% fetal bovine serum (ThermoFisher Scientific 16000044) and 1× penicillin-streptomycin-glutamine (ThermoFisher Scientific 10378016). Sixteen hours prior to compound treatment, MIA PaCa-2 were seeded in 96-well cell culture plates at a density of 25,000 cells/well and incubated at 37° C., 5% CO2. A compound dose-response titration was diluted in growth media, added to appropriate wells of a cell culture plate, and then incubated at 37° C., 5% CO2 for 2 (see Table 10). Following compound treatment, cells were stimulated with 10 ng/mL EGF (Roche 11376454001) for 10 min, washed with ice-cold Dulbecco's phosphate-buffered saline, no Ca^2+ or Mg^2+ (ThermoFisher Scientific 14190144), and then lysed in RIPA buffer (50 mM Tris-HCl pH 7.5, 1% Igepal, 0.5% sodium deoxycholate, 150 mM NaCl, and 0.5% sodium dodecyl sulfate) containing protease inhibitors (Roche 4693132001) and phosphatase inhibitors (Roche 4906837001). Phosphorylation of ERK1/2 in compound-treated lysates was assayed using Phospho-ERK1/2 Whole Cell Lysate kits (Meso Scale Discovery K151DWD) according to the manufacturer's protocol. Assay plates were read on a Meso Scale Discovery Sector Imager 6000, and data were analyzed using a 4-parameter logistic model to calculate IC50 values.
# [3] = Homo sapiens, MIA PaCa-2, 2 h compound treatment
# GDP-bound KRAS protein (aa 1-169), containing both G12C and C118A amino acid substitutions, sequence (P01116 1-169 isoform P01116-2 G12C/C118A): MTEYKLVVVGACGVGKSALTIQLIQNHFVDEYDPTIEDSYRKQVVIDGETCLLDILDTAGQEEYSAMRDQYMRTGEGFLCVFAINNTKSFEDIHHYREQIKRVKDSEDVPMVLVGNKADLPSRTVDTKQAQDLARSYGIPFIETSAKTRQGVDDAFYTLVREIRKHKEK
SMILES,Coupled exchange IC50 (5 min; μM) [1],"IC50 [2, 3]",IC50 ([2]; 2 h compound treatment)
"C=CC(=O)N1CCN(c2c(C#N)c(=O)n(-c3c(C)ccnc3C(C)C)c3nc(-c4ccccc4C)c(Cl)cc23)CC1 (single isomer, unassigned) [Example 11.1, 4-(4-acryloylpiperazin-1-yl)-6-chloro-1-(2-isopropyl-4-methylpyridin-3-yl)-2-oxo-7-(o-tolyl)-1,2-dihydro-1,8-naphthyridine-3-carbonitrile]",0.15 µM,120 nM,
"C=CC(=O)N1CCN(c2c(C#N)c(=O)n(-c3c(C)ccnc3C(C)C)c3nc(-c4ccccc4F)c(Cl)cc23)CC1 [Example 6, 4-(4-Acryloylpiperazin-1-yl)-6-chloro-7-(2-fluorophenyl)-1-(2-isopropyl-4-methylpyridin-3-yl)-2-oxo-1,2-dihydro-1,8-naphthyridine-3-carbonitrile]",0.17 µM,,170 nM
"C=CC(=O)N1CCN(c2c(C#N)c(=O)n(-c3c(C(C)C)ccnc3C(C)C)c3nc(-c4ccccc4F)c(Cl)cc23)CC1 (racemic) [Example 8, 4-(4-Acryloylpiperazin-1-yl)-6-chloro-1-(2,4-diisopropylpyridin-3-yl)-7-(2-fluorophenyl)-2-oxo-1,2-dihydro-1,8-naphthyridine-3-carbonitrile]",0.06 µM,120 nM,
"CC(C)c1ncnc(C(C)C)c1-n1c(=O)c(C#N)c(N2CCN(C(=O)/C=C/CN)CC2)c2cc(Cl)c(-c3ccccc3F)nc21 [Example 4.1, (E)-4-(4-(4-aminobut-2-enoyl)piperazin-1-yl)-6-chloro-1-(4,6-diisopropylpyrimidin-5-yl)-7-(2-fluorophenyl)-2-oxo-1,2-dihydro-1,8-naphthyridine-3-carbonitrile]",0.18 µM,160 nM,
"C=CC(=O)N1[C@H](C)CN(c2c(C#N)c(=O)n(-c3c(C)ccnc3C(C)C)c3nc(-c4ccccc4F)c(Cl)cc23)C[C@@H]1C [Example 7.3, 4-((3R,5S)-4-acryloyl-3,5-dimethylpiperazin-1-yl)-6-chloro-7-(2-fluorophenyl)-1-(2-isopropyl-4-methylpyridin-3-yl)-2-oxo-1,2-dihydro-1,8-naphthyridine-3-carbonitrile]",0.18 µM,260 nM,
"CC(C)c1ncnc(C(C)C)c1-n1c(=O)c(C#N)c(N2CCN(C(=O)/C=C/CN(C)C)CC2)c2cc(Cl)c(-c3ccccc3F)nc21 [Example 3, (E)-6-Chloro-1-(4,6-diisopropylpyrimidin-5-yl)-4-(4-(4-(dimethylamino)but-2-enoyl)piperazin-1-yl)-7-(2-fluorophenyl)-2-oxo-1,2-dihydro-1,8-naphthyridine-3-carbonitrile]",0.4 µM,720 nM,
"C=CC(=O)N1CCN(c2c(C#N)c(=O)n(-c3c(C(C)C)ccnc3C(C)C)c3nc(-c4ccccc4F)c(Cl)cc23)CC1 (single isomer, unassigned) [Example 8.2, 4-(4-acryloylpiperazin-1-yl)-6-chloro-1-(2,4-diisopropylpyridin-3-yl)-7-(2-fluorophenyl)-2-oxo-1,2-dihydro-1,8-naphthyridine-3-carbonitrile]",0.12 µM,,160 nM
"C=CC(=O)N1CCN(c2c(C#N)c(=O)n(-c3c(C)ccnc3C(C)C)c3nc(-c4ccccc4C(C)C)c(Cl)cc23)CC1 (single isomer, unassigned) [Example 11.3, 4-(4-acryloylpiperazin-1-yl)-6-chloro-1-(2-isopropyl-4-methylpyridin-3-yl)-7-(2-isopropylphenyl)-2-oxo-1,2-dihydro-1,8-naphthyridine-3-carbonitrile]",0.05 µM,90 nM,

# Second part, the compound after the results:
Coupled exchange IC50 (5 min; μM) [1],"IC50 [2, 3]",IC50 ([2]; 2 h compound treatment),SMILES
0.07 µM,40 nM,,"C=CC(=O)N1CCN(c2c(C#N)c(=O)n(-c3c(C(C)C)ncnc3C(C)C)c3nc(-c4ccccc4F)c(Cl)cc23)CC1 [Example 6.3, 4-(4-acryloylpiperazin-1-yl)-6-chloro-1-(4,6-diisopropylpyrimidin-5-yl)-7-(2-fluorophenyl)-2-oxo-1,2-dihydro-1,8-naphthyridine-3-carbonitrile]"
0.44 µM,390 nM,,"CC(C)c1ncnc(C(C)C)c1-n1c(=O)c(C#N)c(N2CCN(C(=O)/C=C/CNC(C)(C)C)CC2)c2cc(Cl)c(-c3ccccc3F)nc21 [Example 5.2, (E)-4-(4-(4-(tert-butylamino)but-2-enoyl)piperazin-1-yl)-6-chloro-1-(4,6-diisopropylpyrimidin-5-yl)-7-(2-fluorophenyl)-2-oxo-1,2-dihydro-1,8-naphthyridine-3-carbonitrile]"
0.10 µM,,60 nM,"C=CC(=O)N1CCN(c2c(C#N)c(=O)n(-c3c(C)ccnc3C(C)C)c3nc(-c4ccccc4F)c(Cl)cc23)CC1 [Example 6.5, 4-(4-acryloylpiperazin-1-yl)-6-chloro-7-(2-fluorophenyl)-1-(2-isopropyl-4-methylpyridin-3-yl)-2-oxo-1,2-dihydro-1,8-naphthyridine-3-carbonitrile]"
0.44 µM,560 nM,,"CC(C)NC/C=C/C(=O)N1CCN(c2c(C#N)c(=O)n(-c3c(C(C)C)ncnc3C(C)C)c3nc(-c4ccccc4F)c(Cl)cc23)CC1 [Example 5.1, (E)-6-chloro-1-(4,6-diisopropylpyrimidin-5-yl)-7-(2-fluorophenyl)-4-(4-(4-(isopropylamino)but-2-enoyl)piperazin-1-yl)-2-oxo-1,2-dihydro-1,8-naphthyridine-3-carbonitrile]"
0.20 µM,150 nM,,"C=CC(=O)N1CCN(c2c(C#N)c(=O)n(-c3c(C)ccnc3C(C)C)c3nc(-c4ccccc4F)c(Cl)cc23)C[C@H]1C (single isomer, unassigned) [Example 6.7]"
